Each compound was assayed against T1, recombinant human DPP-1 (Cathepsin C) (Homo sapiens, UniProt P53634) (assay: DPP-1 Inhibition Assay (In Vitro), fluorogenic substrate GR-AMC). Conditions: 0.15 nM DPP-1, 10 uM GR-AMC, pH 7.0, room temperature; average value where tested multiple times.
T1 construct: made in house
Assay type: biochemical
Method: Test compounds were assessed for DPP-1 (Cathepsin C) inhibitory activity using a fluorogenic substrate, GR-AMC (Glycine-Arginine-amino-4-methylcoumarin, Bachem, I-1215). The amount of amino-methylcoumarin released is proportional to the DPP-1 activity, and the reaction is monitored kinetically with a Molecular Devices plate reader using black 96-well plates.
All compounds were tested under room temperature conditions. The assay buffer consisted of 50 mM HEPES, pH 7.0, 100 mM NaCl, 2 mM glutathione (GSH), and 0.002% TWEEN 20. GSH and TWEEN 20 were added to the buffer fresh daily. Just prior to use, an in-house preparation of recombinant human DPP-1 (240 μM stock, MW 49.6 kD) was diluted 600-fold in assay buffer containing fresh 2 mM dithiothreitol (DTT) to activate the enzyme, then diluted into assay buffer (without DTT) 133-fold for a DPP-1 working solution of 3 nM. Test compounds were diluted in DMSO for 20× their final assay concentrations.
Additions to a 96-well black Costar 3915 plates were as follows: 90 μL of 11 μM GR-AMC, 5 μL test compound (followed by mixing), and 5 μL 3 nM DPP-1 to start the reaction. Fluorescent reactions were monitored kinetically at 360 nm excitation, 440 nm emission on a Molecular Devices Spectramax XPS reader. The Softmax Pro software of the reader determined the initial velocity of the selected data (the first 3-5 minutes of the reaction), and the best linear regression fit of the initial kinetic data. Final assay conditions were 0.15 nM DPP-1, 10 uM GR-AMC, 50 mM HEPES, pH 7.0, 100 mM NaCl, 2 mM GSH, 0.002% TWEEN 20, 1 uM DTT, 5.0% DMSO. Initial velocity rates were plotted vs. test compound concentration by use of a four-parameter logistics equation (nonlinear regression, sigmoidal dose-response (variable slope), with fixed Hill (1.0) using GraphPad Prism® software for determination of DPP-1 IC50. Within-run assay coefficient of variation (CV) was generally <10%; between-run CV <20%.
Representative compounds of the present invention were tested according to the procedure as described above, with results as listed in Table 5, below.

T1 sequence (P53634 25-463): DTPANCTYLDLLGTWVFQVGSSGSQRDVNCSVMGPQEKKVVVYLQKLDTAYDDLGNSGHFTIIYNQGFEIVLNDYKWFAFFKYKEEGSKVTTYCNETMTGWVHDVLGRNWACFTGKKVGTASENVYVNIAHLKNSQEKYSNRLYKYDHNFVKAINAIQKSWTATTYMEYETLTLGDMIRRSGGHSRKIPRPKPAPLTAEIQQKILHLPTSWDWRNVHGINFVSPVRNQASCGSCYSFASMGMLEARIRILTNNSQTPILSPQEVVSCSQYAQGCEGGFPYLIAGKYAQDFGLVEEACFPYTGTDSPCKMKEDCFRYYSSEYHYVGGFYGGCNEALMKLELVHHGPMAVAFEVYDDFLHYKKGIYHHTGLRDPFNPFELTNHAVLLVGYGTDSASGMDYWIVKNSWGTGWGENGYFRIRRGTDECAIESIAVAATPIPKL

Compound	IC50 [nM]
Cc1ccc(C2(C(=O)NCC3CCOCC3)CCN(C(=O)[C@@H](N)Cc3cccs3)CC2)cc1 [Compound 130]	41
N#Cc1ccc(-c2ccc(CC3(C(=O)NC4CCCCC4)CCN(C(=O)[C@@H](N)Cc4cccs4)CC3)cc2)cc1 [Compound 99]	46
N[C@@H](Cc1cccs1)C(=O)N1CCC(Cc2ccc(-c3ccc(O)nc3)cc2)(C(=O)NC2CCCCC2)CC1 [Compound 49]	24
N[C@@H](Cc1cccs1)C(=O)N1CCC(Cc2ccc(C(=O)NC3CCCCC3)cc2)(C(=O)NC2CCCCC2)CC1 [Compound 56]	49
N[C@@H](Cc1cccs1)C(=O)N1CCC(C(=O)N[C@H]2CC[C@H](O)CC2)(c2cc(C(F)(F)F)cc(C(F)(F)F)c2)CC1 [Compound 120]	230
CC[C@H](N)C(=O)N1CCC(Cc2ccc(I)cc2)(C(=O)NC2CCCCC2)CC1 [Compound 77]	2300
N[C@@H](Cc1cccs1)C(=O)N1CCC(Cc2ccc(Cl)cc2)(C(=O)OCC2CCCCC2)CC1 [Compound 14]	350
N[C@@H](Cc1cccs1)C(=O)N1CCC(Cc2ccncc2)(C(=O)N2CCOCC2)CC1 [Compound 122]	1300
N[C@@H](Cc1cccs1)C(=O)N1CCC(Cc2ccc(-c3cncnc3)cc2)(C(=O)NC2CCCCC2)CC1 [Compound 43]	29
CC[C@H](N)C(=O)N1CCC(C(=O)N(C)C2CCCCC2)(c2ccccc2)CC1 [Compound 138]	1700
CSCC[C@H](N)C(=O)N1CCC(Cc2ccc(I)cc2)(C(=O)NC2CCCCC2)CC1 [Compound 73]	250
COC(=O)[C@H]1CC[C@H](CNC(=O)C2(c3ccccc3)CCN(C(=O)[C@@H](N)Cc3cccs3)CC2)CC1 [Compound 110]	170
N[C@@H](Cc1cccs1)C(=O)N1CCC(Cc2ccc([N+](=O)[O-])cc2)(C(=O)NC2CCCCC2)CC1 [Compound 81]	24
CC[C@H](N)C(=O)N1CCC(Cc2cccnc2)(C(=O)OCC2CCCCC2)CC1 [Compound 23]	8200
C[C@@H](O)[C@H](N)C(=O)N1CCC(C(=O)NCC2CCCCC2)(c2ccccc2)CC1 [Compound 139]	2600
N[C@@H](Cc1cccs1)C(=O)N1CCC(Cc2ccc(-c3ccc(C(=O)O)cc3)cc2)(C(=O)NC2CCCCC2)CC1 [Compound 52]	100
CCC[C@H](N)C(=O)N1CCC(Cc2cccnc2)(C(=O)NCC2CCCCC2)CC1 [Compound 136]	6500
N[C@@H](Cc1cccs1)C(=O)N1CCC(Cc2ccc(C(=O)N3CCCC3)cc2)(C(=O)NC2CCCCC2)CC1 [Compound 58]	73
N[C@@H](Cc1cccs1)C(=O)N1CCC(C(=O)NCC2CCCCC2)(c2ccccc2)CC1 [Compound 91]	23
N[C@@H](Cc1cccs1)C(=O)N1CCC(Cc2cccnc2)(C(=O)OCC2CCCCC2)CC1 [Compound 24]	99

Compound	IC50 [nM]
N[C@@H](Cc1cccs1)C(=O)N1CCC(Cc2ccc(C(=O)O)cc2)(C(=O)NC2CCCCC2)CC1 [Compound 62]	360
N[C@@H](Cc1cc(Br)cs1)C(=O)N1CCC(Cc2ccc(I)cc2)(C(=O)NC2CCCCC2)CC1 [Compound 92]	5600
N[C@@H](Cc1c[nH]cn1)C(=O)N1CCC(Cc2ccc(F)cc2F)(C(=O)OCC2CCCCC2)CC1 [Compound 28]	1700
N[C@@H](Cc1cccs1)C(=O)N1CCC(Cc2ccncc2)(C(=O)NCC2CCOCC2)CC1 [Compound 121]	130
N[C@@H](Cc1cccs1)C(=O)N1CCC(Cc2ccccc2)(C(=O)NC2CCCCC2)CC1 [Compound 86]	40
N[C@@H](Cc1cccs1)C(=O)N1CCC(Cc2ccncc2)(C(=O)NC2CCCCC2)CC1 [Compound 71]	37
CS(=O)(=O)Nc1ccc(CC2(C(=O)NC3CCCCC3)CCN(C(=O)[C@@H](N)Cc3cccs3)CC2)cc1 [Compound 88]	31
N[C@@H](Cc1c[nH]cn1)C(=O)N1CCC(Cc2cccnc2)(C(=O)NC2CCCCC2)CC1 [Compound 68]	910
N[C@@H](Cc1cccs1)C(=O)N1CCC(Cc2ccc(-c3cccc(C(=O)O)c3)cc2)(C(=O)NC2CCCCC2)CC1 [Compound 55]	100
CC(=O)Nc1cccc(-c2ccc(CC3(C(=O)NC4CCCCC4)CCN(C(=O)[C@@H](N)Cc4cccs4)CC3)cc2)c1 [Compound 54]	31
N[C@@H](Cc1cccs1)C(=O)N1CCC(Cc2cccc(-c3ccc(O)nc3)c2)(C(=O)NC2CCCCC2)CC1 [Compound 98]	45
Cc1ccc(C2(C(=O)NCC3CCCCC3)CCN(C(=O)[C@@H](N)Cc3cccs3)CC2)cc1 [Compound 129]	17
CC[C@H](N)C(=O)N1CCC(Cc2ccc(C#N)cc2)(C(=O)OCC2CCCCC2)CC1 [Compound 17]	4400
N#Cc1ccc(CC2(C(=O)OCC3CCCCC3)CCN(C(=O)[C@@H](N)Cc3c[nH]cn3)CC2)cc1 [Compound 16]	1200
CC[C@H](N)C(=O)N1CCC(C(=O)NC2CCCCC2)(c2ccccc2)CC1 [Compound 70]	9400
N[C@@H](Cc1cccs1)C(=O)N1CCC(C(=O)N[C@H]2CC[C@H](C(=O)O)CC2)(c2ccccc2)CC1 [Compound 115]	200
N[C@@H](Cc1cccs1)C(=O)N1CCC(Cc2ccc(NS(=O)(=O)C(F)(F)F)cc2)(C(=O)NC2CCCCC2)CC1 [Compound 89]	150
N[C@@H](Cc1cccs1)C(=O)N1CCC(Cc2ccc(C(F)(F)F)cc2)(C(=O)OCC2CCCCC2)CC1 [Compound 19]	400
NC(=O)c1ccc(CC2(C(=O)NC3CCCCC3)CCN(C(=O)[C@@H](N)Cc3cccs3)CC2)cc1 [Compound 61]	47
